{
  "source": "ChEMBL document CHEMBL5523746",
  "about": "“Discovery of Novel Peptide Antagonists Targeting GPR55 for Liver Inflammation and Fibrosis” (2024)",
  "key": {"LX-2 [1]": {"system": "LX-2", "assay": "Anti-fibrotic activity in human LX2 cells assessed as reduction in […] expression by measuring relative inhibition rate measured after 24 hrs incubation by Western blot analysis relative to control", "format": "functional", "parameters": "concentration or dose not given beside the values"}, "LX-2 [2]": {"system": "LX-2", "assay": "Anti-fibrotic activity in human LX2 cells assessed as reduction in COL1alpha expression by measuring relative inhibition rate measured after 24 hrs incubation by Western blot analysis relative to control", "format": "functional", "parameters": "concentration or dose not given beside the values"}, "Mus musculus [3]": {"system": "Mus musculus", "assay": "In vivo anti-fibrotic activity against CCl4-induced liver fibrosis C57BL/6J mouse model assessed as decrease in COL1alpha at 150 to 300 microg/kg once daily for 3 weeks by IHC staining based assay", "format": "functional, organism-based", "conditions": "dose 150-300 µg/kg"}, "Mus musculus [4]": {"system": "Mus musculus", "assay": "In vivo anti-fibrotic activity against CCl4-induced liver fibrosis C57BL/6J mouse model assessed as liver function by measuring decrease in serum hydroxyproline (HYP) at 150 to 300 microg/kg once daily for 3 weeks by bio-chemical analysis", "format": "functional, organism-based", "conditions": "dose 150-300 µg/kg"}, "Mus musculus [5]": {"system": "Mus musculus", "assay": "In vivo anti-fibrotic activity against CCl4-induced liver fibrosis C57BL/6J mouse model assessed as liver function by measuring decrease in hydroxyproline (HYP) at 150 to 300 microg/kg once daily for 3 weeks by Western blot analysis", "format": "functional, organism-based", "conditions": "dose 150-300 µg/kg"}, "Mus musculus [6]": {"system": "Mus musculus", "assay": "In vivo anti-fibrotic activity against CCl4-induced liver fibrosis C57BL/6J mouse model assessed as liver function by measuring decrease in amino-transferase (ALT) at 150 to 300 microg/kg once daily for 3 weeks by Western blot analysis", "format": "functional, organism-based", "conditions": "dose 150-300 µg/kg"}, "Mus musculus [7]": {"system": "Mus musculus", "assay": "In vivo anti-fibrotic activity against CCl4-induced liver fibrosis C57BL/6J mouse model assessed as reduction in […] mRNA level at 150 to 300 microg/kg once daily for 3 weeks by RT-qPCR analysis", "format": "functional, organism-based", "conditions": "dose 150-300 µg/kg"}, "Mus musculus [8]": {"system": "Mus musculus", "assay": "In vivo anti-fibrotic activity against CCl4-induced liver fibrosis C57BL/6J mouse model assessed as reduction in oxidative stress by measuring increase in superoxide dismutase at 150 to 300 microg/kg once daily for 3 weeks by enzyme activity assay", "format": "functional, organism-based", "conditions": "dose 150-300 µg/kg"}, "Mus musculus [9]": {"system": "Mus musculus", "assay": "In vivo anti-fibrotic activity against CCl4-induced liver fibrosis C57BL/6J mouse model assessed as reduction in oxidative stress by measuring increase in catalase at 150 to 300 microg/kg once daily for 3 weeks by enzyme activity assay", "format": "functional, organism-based", "conditions": "dose 150-300 µg/kg"}, "Mus musculus [10]": {"system": "Mus musculus", "assay": "In vivo anti-fibrotic activity against CCl4-induced liver fibrosis C57BL/6J mouse model assessed as decrease in pro-apoptotic protein BIM level at 300 microg/kg once daily for 3 weeks by Western blot analysis", "format": "functional, organism-based", "conditions": "dose 300.0 µg/kg"}, "Mus musculus [11]": {"system": "Mus musculus", "assay": "In vivo anti-fibrotic activity against CCl4-induced liver fibrosis C57BL/6J mouse model assessed as decrease in pro-apoptotic protein CHOP level at 300 microg/kg once daily for 3 weeks by Western blot analysis", "format": "functional, organism-based", "conditions": "dose 300.0 µg/kg"}, "Mus musculus [12]": {"system": "Mus musculus", "assay": "In vivo anti-fibrotic activity against CCl4-induced liver fibrosis C57BL/6J mouse model assessed as decrease in pro-apoptotic protein caspase-8 level at 300 microg/kg once daily for 3 weeks by Western blot analysis", "format": "functional, organism-based", "conditions": "dose 300.0 µg/kg"}, "Mus musculus [13]": {"system": "Mus musculus", "assay": "In vivo anti-fibrotic activity against methionine and choline-deficient (MCD) diet-induced liver fibrosis C57BL/6J mouse model assessed as decrease in inflammatory infiltration and collagen deposition at 150 to 300 microg/kg once daily for 3 weeks by H and E staining based assay", "format": "functional, organism-based", "conditions": "dose 150-300 µg/kg"}, "Mus musculus [14]": {"system": "Mus musculus", "assay": "In vivo anti-fibrotic activity against methionine and choline-deficient (MCD) diet-induced liver fibrosis C57BL/6J mouse model assessed as decrease in inflammatory infiltration and collagen deposition at 150 to 300 microg/kg once daily for 3 weeks by ORO staining based assay", "format": "functional, organism-based", "conditions": "dose 150-300 µg/kg"}, "Mus musculus [15]": {"system": "Mus musculus", "assay": "In vivo anti-fibrotic activity against methionine and choline-deficient (MCD) diet-induced liver fibrosis C57BL/6J mouse model assessed as decrease in inflammatory infiltration and collagen deposition at 150 to 300 microg/kg once daily for 3 weeks by Sirius Red staining based assay", "format": "functional, organism-based", "conditions": "dose 150-300 µg/kg"}, "Mus musculus [16]": {"system": "Mus musculus", "assay": "In vivo anti-fibrotic activity against methionine and choline-deficient (MCD) diet-induced liver fibrosis C57BL/6J mouse model assessed as reduction in inflammation by measuring decrease in CD68 inflammation marker at 150 to 300 microg/kg once daily for 3 weeks by IHC staining based assay", "format": "functional, organism-based", "conditions": "dose 150-300 µg/kg"}, "Mus musculus [17]": {"system": "Mus musculus", "assay": "In vivo anti-fibrotic activity against methionine and choline-deficient (MCD) diet-induced liver fibrosis C57BL/6J mouse model assessed as reduction in inflammation by measuring decrease in Ly6G inflammation marker at 150 to 300 microg/kg once daily for 3 weeks by IHC staining based assay", "format": "functional, organism-based", "conditions": "dose 150-300 µg/kg"}, "Mus musculus [18]": {"system": "Mus musculus", "assay": "Reduction in fatty acid synthesis related gene expression in methionine and choline-deficient (MCD) diet-induced liver fibrosis C57BL/6J mouse model assessed as reduction in SCD1 mRNA level at 150 to 300 microg/kg once daily for 3 weeks by qPCR analysis", "format": "functional, organism-based", "conditions": "dose 150-300 µg/kg"}, "Mus musculus [19]": {"system": "Mus musculus", "assay": "Induction of fatty acid beta-oxidation related gene expression in methionine and choline-deficient (MCD) diet-induced liver fibrosis C57BL/6J mouse model assessed as increase in ACOX mRNA level at 150 to 300 microg/kg once daily for 3 weeks by qPCR analysis", "format": "functional, organism-based", "conditions": "dose 150-300 µg/kg"}, "Mus musculus [20]": {"system": "Mus musculus", "assay": "Induction of fatty acid beta-oxidation related gene expression in methionine and choline-deficient (MCD) diet-induced liver fibrosis C57BL/6J mouse model assessed as increase in LCAD mRNA level at 150 to 300 microg/kg once daily for 3 weeks by qPCR analysis", "format": "functional, organism-based", "conditions": "dose 150-300 µg/kg"}, "Mus musculus [21]": {"system": "Mus musculus", "assay": "Induction of fatty acid beta-oxidation related gene expression in methionine and choline-deficient (MCD) diet-induced liver fibrosis C57BL/6J mouse model assessed as increase in […] mRNA level at 150 to 300 microg/kg once daily for 3 weeks by qPCR analysis", "format": "functional, organism-based", "conditions": "dose 150-300 µg/kg"}, "Mus musculus [22]": {"system": "Mus musculus", "assay": "Induction of fatty acid beta-oxidation related gene expression in methionine and choline-deficient (MCD) diet-induced liver fibrosis C57BL/6J mouse model assessed as increase in PPARalpha mRNA level at 150 to 300 microg/kg once daily for 3 weeks by qPCR analysis", "format": "functional, organism-based", "conditions": "dose 150-300 µg/kg"}, "Mus musculus [23]": {"system": "Mus musculus", "assay": "Induction of fatty acid beta-oxidation related gene expression in methionine and choline-deficient (MCD) diet-induced liver fibrosis C57BL/6J mouse model assessed as increase in PGC1A mRNA level at 150 to 300 microg/kg once daily for 3 weeks by qPCR analysis", "format": "functional, organism-based", "conditions": "dose 150-300 µg/kg"}, "Mus musculus [24]": {"system": "Mus musculus", "assay": "In vivo anti-fibrotic activity against methionine and choline-deficient (MCD) diet-induced liver fibrosis C57BL/6J mouse model assessed as reduction in ROS treated at 150 to 300 microg/kg once daily for 3 weeks by qPCR analysis", "format": "functional, organism-based", "conditions": "dose 150-300 µg/kg"}, "Mus musculus [25]": {"system": "Mus musculus", "assay": "In vivo anti-fibrotic activity against methionine and choline-deficient (MCD) diet-induced liver fibrosis C57BL/6J mouse model assessed as reduction in hepatocyte apoptosis at 150 to 300 microg/kg once daily for 3 weeks by TUNEL assay", "format": "functional, organism-based", "conditions": "dose 150-300 µg/kg"}, "Mus musculus [26]": {"system": "Mus musculus", "assay": "In vivo anti-fibrotic activity against methionine and choline-deficient (MCD) diet-induced liver fibrosis C57BL/6J mouse model assessed as reduction in oxidative stress by measuring decrease in lipid oxidation product MDA at 150 to 300 microg/kg once daily for 3 weeks by enzyme activity assay", "format": "functional, organism-based", "conditions": "dose 150-300 µg/kg"}, "Mus musculus [27]": {"system": "Mus musculus", "assay": "In vivo anti-fibrotic activity against methionine and choline-deficient (MCD) diet-induced liver fibrosis C57BL/6J mouse model assessed as reduction in oxidative stress by measuring increase in superoxide dismutase at 150 to 300 microg/kg once daily for 3 weeks by enzyme activity assay", "format": "functional, organism-based", "conditions": "dose 150-300 µg/kg"}, "Mus musculus [28]": {"system": "Mus musculus", "assay": "In vivo anti-fibrotic activity against methionine and choline-deficient (MCD) diet-induced liver fibrosis C57BL/6J mouse model assessed as reduction in oxidative stress by measuring increase in catalase at 150 to 300 microg/kg once daily for 3 weeks by enzyme activity assay", "format": "functional, organism-based", "conditions": "dose 150-300 µg/kg"}},
  "note": "Active and inactive are the calls of the source. The calls are words filed in the database; no cut-off is given here. Bridge positions count the residues as written; N and C are the ends. Peptide text beside a SMILES is read from it.",
  "data": [
    {"smiles": "CC[C@H](C)[C@@H]1NC(=O)[C@H]([C@@H](C)O)NC(=O)[C@@H]2CCCN2C(=O)[C@H](CO)NC(=O)[C@H](CC(N)=O)NC(=O)[C@H](CCCCN)NC(=O)[C@H](CCCCN)NC(=O)[C@@H](N)CSSC[C@@H](C(=O)O)NC1=O", "note": "(H-CKKNSPTIC-OH; disulfide 1-9)", "values": [
      {"measurement": "Activity", "setting": "LX-2 [1]", "value": 47, "unit": "%"},
      {"measurement": "Activity", "setting": "LX-2 [2]", "value": 40, "unit": "%"},
      {"measurement": "Activity", "setting": "Mus musculus [3]", "value": "Active"},
      {"measurement": "Activity", "setting": "Mus musculus [4]", "value": "Active"},
      {"measurement": "Activity", "setting": "Mus musculus [5]", "value": "Active"},
      {"measurement": "Activity", "setting": "Mus musculus [6]", "value": "Active"},
      {"measurement": "Activity", "setting": "Mus musculus [7]", "value": "Active"},
      {"measurement": "Activity", "setting": "Mus musculus [8]", "value": "Active"},
      {"measurement": "Activity", "setting": "Mus musculus [9]", "value": "Active"},
      {"measurement": "Activity", "setting": "Mus musculus [10]", "value": "Active"},
      {"measurement": "Activity", "setting": "Mus musculus [11]", "value": "Active"},
      {"measurement": "Activity", "setting": "Mus musculus [12]", "value": "Active"},
      {"measurement": "Activity", "setting": "Mus musculus [13]", "value": "Active"},
      {"measurement": "Activity", "setting": "Mus musculus [14]", "value": "Active"},
      {"measurement": "Activity", "setting": "Mus musculus [15]", "value": "Active"},
      {"measurement": "Activity", "setting": "Mus musculus [16]", "value": "Active"},
      {"measurement": "Activity", "setting": "Mus musculus [17]", "value": "Active"},
      {"measurement": "Activity", "setting": "Mus musculus [18]", "value": "Active"},
      {"measurement": "Activity", "setting": "Mus musculus [19]", "value": "Active"},
      {"measurement": "Activity", "setting": "Mus musculus [20]", "value": "Active"},
      {"measurement": "Activity", "setting": "Mus musculus [21]", "value": "Active"},
      {"measurement": "Activity", "setting": "Mus musculus [22]", "value": "Active"},
      {"measurement": "Activity", "setting": "Mus musculus [23]", "value": "Active"},
      {"measurement": "Activity", "setting": "Mus musculus [24]", "value": "Active"},
      {"measurement": "Activity", "setting": "Mus musculus [25]", "value": "Active"},
      {"measurement": "Activity", "setting": "Mus musculus [26]", "value": "Active"},
      {"measurement": "Activity", "setting": "Mus musculus [27]", "value": "Active"},
      {"measurement": "Activity", "setting": "Mus musculus [28]", "value": "Active"}
    ]}
  ]
}
